Measured values published in US11638718B2, “Treatment of alphavirus-induced inflammation” (priority 2016, dated 2023).
Marks after values point to notes of the source that are not given here.

Legend:
Ross River virus (RRV) [1] = test: H&E histology of quadriceps muscle and joint inflammation, RRV-infected mice
Ross River virus (RRV) [2] = test: RRV-induced disease in mice: clinical score and weight; format: in vivo, C57BL/6 mice; details: RRV-infected mice, PPS 3 mg/kg i.p. daily vs vehicle
Ross River virus (RRV) [3] = test: Serum soluble factors by multiplex bead array, RRV-infected mice
[4] = tested on: chikungunya virus (CHIKV); test: CHIKV viral load: plaque assay on Vero cells and E2 qPCR; format: in vivo, C57BL/6 mice; details: CHIKV-infected, days 1, 3 and 7 p.i.
[5] = tested on: cartilage matrix genes in joint tissues of RRV-infected mice; test: Real-time PCR of cartilage matrix genes in joint tissues, acute RRV infection
Ross River virus (RRV) [6] = test: Long-term oral PPS treatment of RRV-infected mice: clinical signs, joint gene expression
[7] = tested on: chikungunya virus (CHIKV); test: Serum soluble factors by multiplex, CHIKV-infected mice
Ross River virus (RRV) [8] = test: RRV viral load: plaque assay on Vero cells and nsP3 qPCR; format: in vivo, C57BL/6 mice
Ross River virus (RRV) [9] = test: Masson's trichrome and Safranin O/Fast Green histology of muscle, cartilage and epiphyseal plate, RRV-infected mice; details: day 10 p.i.
[10] = tested on: chikungunya virus (CHIKV); test: CHIKV-induced footpad swelling and joint histology in mice; format: in vivo, C57BL/6 mice
[11] = humans, periods greater than 12 months (ref 53); cited from earlier work
Ross River virus (RRV) [12] = test: Detection of leukocyte infiltrates in quadriceps by flow cytometry, RRV-infected mice
alphavirus = details: earlier studies by the group (refs 30, 55-57); cited from earlier work
[13] = peak disease (day 10 p.i.), not at the early stages
[14] = RRV + PPS, long-term oral treatment, joint tissue
[15] = long-term oral PPS, RRV-infected

For pentosan polysulfate [PPS], the “infiltrating cells in muscle and joint tissues (H&E)” value (Ross River virus (RRV) [1]; RRV-infected, PPS 3 mg/kg i.p. daily, day 7 and 10 p.i.) was “markedly reduced numbers of infiltrating cells”, the “inflammation in quadriceps muscle or ankle joint” value (Ross River virus (RRV) [1]; mock-infected PPS-treated mice) was “No inflammation was observed” and the “decrease in clinical disease score” value (Ross River virus (RRV) [2]) was 65%. For the same substance, the disease-associated weight loss (Ross River virus (RRV) [2]) was “protection from disease-associated weight loss”, the “serum IL-10” value (Ross River virus (RRV) [3]; day 1 p.i.) was “significantly elevated” and the serum chemo-attractants factors (Ross River virus (RRV) [3]; day 1 p.i.) was “increased levels”. For the same substance, the “serum IL-10” value (Ross River virus (RRV) [3]; day 3 p.i.) was “significantly elevated”, the “serum CCL-2” value (Ross River virus (RRV) [3]; peak disease (day 10 p.i.)) was “significantly reduced” and the “serum IL-1α” value (Ross River virus (RRV) [3]; peak disease (day 10 p.i.)) was “significantly reduced”. The “serum IL-2” value (Ross River virus (RRV) [3]; peak disease (day 10 p.i.)) was “significantly reduced”, the “serum IL-6” value (Ross River virus (RRV) [3]; peak disease (day 10 p.i.)) was “significantly reduced” and the “serum MIP-1α” value (Ross River virus (RRV) [3]; peak disease (day 10 p.i.)) was “significantly reduced”. For the same substance, the “kinetics of virus infection (plaque assay)” value [4] was “did not affect the kinetics of virus infection”, the BMP-1 expression ([5]; RRV-infected, PPS 3 mg/kg i.p.) was “unaffected” and the TGF-β1 expression ([5]; RRV-infected, PPS 3 mg/kg i.p.) was “unaffected”. The “aggrecan expression increase caused by RRV” value ([5]; RRV-infected, PPS 3 mg/kg i.p.) was “largely reduced”, the “collagen I expression increase caused by RRV” value ([5]; RRV-infected, PPS 3 mg/kg i.p.) was “largely reduced” and the “collagen II expression increase caused by RRV” value ([5]; RRV-infected, PPS 3 mg/kg i.p.) was “largely reduced”. For the same substance, the metalloproteinases expression ([5]; RRV-infected, PPS 3 mg/kg i.p.) was “unaffected”, the “early expression of aggrecan” value ([5]; early time points p.i.) was “significantly reduced” and the “early expression of collagen II” value ([5]; early time points p.i.) was “significantly reduced”. The “ADAMTS-5 expression in joint tissue” value [5, 13] was “significantly reduced”, the “TIMP-3 expression in joint tissue” value [5, 13] was “significantly reduced” and the “Fold Change ADAMTS-4” value (Ross River virus (RRV) [6]; [14]) was 0.1689**. For the same substance, the “Fold Change ADAMTS-5” value (Ross River virus (RRV) [6]; [14]) was 0.8305, the “Fold Change Aggrecan” value (Ross River virus (RRV) [6]; [14]) was 0.6105*** and the “Fold Change BMP-1” value (Ross River virus (RRV) [6]; [14]) was 1.4697. The “Fold Change Collagen I” value (Ross River virus (RRV) [6]; [14]) was 0.4014, the “Fold Change Collagen II” value (Ross River virus (RRV) [6]; [14]) was 0.1719 and the “Fold Change MMP-3” value (Ross River virus (RRV) [6]; [14]) was 2.5028. The “Fold Change MMP-9” value (Ross River virus (RRV) [6]; [14]) was 0.8604, the “Fold Change TGF-β1” value (Ross River virus (RRV) [6]; [14]) was 0.4010 and the “Fold Change TIMP-3” value (Ross River virus (RRV) [6]; [14]) was 0.6328. For the same substance, the “ADAMTS-4 expression” value (Ross River virus (RRV) [6]; [15]) was “reduced”, the “expression of aggrecan” value (Ross River virus (RRV) [6]; [15]) was “back to base-line levels” and the joint damage (Ross River virus (RRV) [6]; [15]) was “less joint damage”. The adverse clinical signs (Ross River virus (RRV) [6]; oral PPS in drinking water 100 mg/L (25 mg/kg/day), 3-month duration) was “no adverse clinical signs”, the “serum IL-10” value ([7]; early) was “early surge” and the “serum CCL-2” value ([7]; peak disease (day 3 p.i.)) was “reduced the levels”. The “serum G-CSF” value ([7]; peak disease (day 3 p.i.)) was “reduced the levels”, the “serum IL-6” value ([7]; peak disease (day 3 p.i.)) was “reduced the levels” and the “serum IL-9” value ([7]; peak disease (day 3 p.i.)) was “reduced the levels”. For the same substance, the “viral titres in serum” value (Ross River virus (RRV) [8]; PPS-treated vs mock-treated, all days tested, plaque assay) was “comparable”, the “RRV titres in quadriceps muscles” value (Ross River virus (RRV) [8]; PPS-treated vs mock-treated, plaque assay) was “comparable” and the “RRV titres in ankle tissues” value (Ross River virus (RRV) [8]; day 3 p.i., plaque assay) was “slight reduction”. The “RRV titres in ankle tissues” value (Ross River virus (RRV) [8]; day 7 p.i., plaque assay) was “comparable”, the “RRV RNA in joint tissue (qPCR), difference to mock-treated” value (Ross River virus (RRV) [8]; day 10 p.i.) was “not statistically significant” and the “RRV titres in ankle tissues” value (Ross River virus (RRV) [8]; day 10 p.i., plaque assay, vs mock-treated) was “elevated”. For the same substance, the chondrocyte morphology (Ross River virus (RRV) [9]) was “maintaining chondrocyte morphology”, the epiphyseal plate thickness (Ross River virus (RRV) [9]) was “prevented RRV-induced thinning of the epiphyseal plate” and the “loss of articular cartilage” value (Ross River virus (RRV) [9]) was “preventing the loss of articular cartilage”. The “proteoglycan matrix of articular cartilage (Safranin O/Fast Green, knee joint)” value (Ross River virus (RRV) [9]) was “protected the proteoglycan matrix of the articular cartilage”, the “skeletal muscle morphology (tibialis anterior, Masson's trichrome)” value (Ross River virus (RRV) [9]) was “protected the morphology of striations within the skeletal muscle” and the “joint (footpad) swelling” value ([10]; CHIKV-infected mice, PPS 3 mg/kg i.p. daily) was “decreased the level of joint swelling”. The “inflammatory cells infiltrating into the joint (H&E)” value ([10]; CHIKV-infected, peak swelling 3 days p.i.) was “reduction in inflammatory cells infiltrating into the joint”, the “tolerability of long-term clinical use” value [11] was “extremely well tolerated” and the “NK cell population in quadriceps” value (Ross River virus (RRV) [12]; day 7 p.i.) was “reductions”. For the same substance, the “T cell population in quadriceps” value (Ross River virus (RRV) [12]; day 7 p.i.) was “reductions”, the “monocyte population in quadriceps” value (Ross River virus (RRV) [12]; day 7 p.i.) was “reductions” and the “numbers of CD45+ infiltrating leukocytes in quadriceps” value (Ross River virus (RRV) [12]; day 7 p.i.) was “uniformly reduced”. For the same substance, the “NK cell population in quadriceps” value (Ross River virus (RRV) [12]; day 10 p.i.) was “decrease”, the “T cell population in quadriceps” value (Ross River virus (RRV) [12]; day 10 p.i.) was “decrease” and the “percentage of NK cells in quadriceps (NK cell to total cell ratio)” value (Ross River virus (RRV) [12]; day 10 p.i., data not shown) was “reduction in the overall percentage of NK cells”.
In the case of Enbrel, the “effect on alphavirus disease” value (alphavirus) is listed as “suppress the antiviral response and enhance viral replication thereby worsen disease”.
